Type in all cases: cell-based
The subject of experiment [1] is HUH-7 liver cancer cells. The experiment is described as follows: CellTiter-Glo luminescent cell viability assay, HUH-7 liver cancer cells. The settings on record: Homo sapiens, 72 hours. From the text: (§1) In example 1, CELLTITER-GLO was used to test promethazine against liver cancer and/or colon cancer. n) HUH-7 cells and LoVo cells were handled as described above, and HUH-7 96-well cell culture plates and LoVo 96-well cell culture plates were obtained, respectively. The complete medium for HUH-7 cells was DMEM (a live product), Cat #11995081, with a cells/well density of 6000. 2. […] The final concentrations (μM) of the analyte drug in wells 2-10 in FIG. 1 are, in order: 100, 31.64557, 10.01442, 3.16912, 1.002886, 0.317369, 0.100433, 0.031783, 0.010058; B. CELLTITER-GLO Luminescent Cell Viability Assay System a) Before testing, the HUH-7 96-well drug screening plate and the LoVo 96-well drug screening plate described in 3 above were stabilized to room temperature for 20-30 minutes. c) 100 μl of CellTiter-Glo reagent (prepared as described in 1 above) was added to all drug screening plates and mixed evenly. d) It was thoroughly oscillated in a 96-well microplate oscillator for 2 minutes to allow the cells to undergo full lysis. e) It was stored away from light at room temperature for 15 minutes before carrying out luminescent signal detection to ensure signal stability. f) An EnSpire multi-function plate reader was used at 570 nm to read the luminescent signals. g) Data was processed and analyzed.
For orientation: In ATP-based viability assays light output follows the ATP content of the culture.

The subject of experiment [2] is NCI-H661 large-cell lung cancer cells. The experiment is described as follows: CellTiter-Glo luminescent cell viability assay, NCI-H661 large-cell lung cancer cells. The settings on record: Homo sapiens, 72 hours.
The subject of experiment [3] is SKOV-3 human ovarian cancer cells. The experiment is described as follows: CellTiter-Glo luminescent cell viability assay, SKOV-3 ovarian cancer cells. The settings on record: SK-OV-3, SKOV-3 cells, 72 hours.
Experiment [4] relates to LoVo colon cancer cells. The experiment is described as follows: CellTiter-Glo luminescent cell viability assay, LoVo colon cancer cells. The conditions noted are these: Homo sapiens, 72 hours.
Excerpt: as §1, with “for LoVo” for “for HUH-7”, “of 8000.” for “of 6000.”

For experiment [5], the system named is NCI-H2141 lung cancer cells. Put plainly: CellTiter-Glo luminescent cell viability assay, NCI-H2141 lung cancer cells. The conditions noted are these: 72 hours.

The structures appear in SMILES notation. Some results are limits rather than exact numbers.

The EC50 is the concentration needed to bring the measured effect to its halfway point. Higher therefore signals lower potency in that assay. By IC50 is commonly meant the concentration at which inhibition is half-maximal. The low end stands for inhibition by little substance, the high end for a need for much substance.

Regarding `CC(CN1c2ccccc2Sc2ccccc21)N(C)C` (stereo not shown) [promethazine], the EC50 in experiment [1] (FIG. 2, liver cancer (HUH-7)) is 42 µM; in experiment [5] (FIG. 4, lung cancer (NCI-H2141)) it was 33.9 µM. Further, the IC50 in experiment [1] (HUH-7 cells) was 31.4 µM; in experiment [2], at least 100 µM; in experiment [3], at least 100 µM; in experiment [4], 33.5 µM; in experiment [5] (NCI-H2141 cells), 34.6 µM.
